A short description of data set [1]: Cytotoxicity (MTT) of oligopeptide in HaCaT human keratinocytes. In kind it is cell-based. Particulars: 24 hr, MTT absorbance 570 nm as percentage of pure water control. As for the experimental part: (§1) In order to evaluate the stability of the oligopeptide prepared in Preparation Example 1 when applied to humans, irritation of the skin and scalp due to cytotoxicity was measured using a HaCaT cell line as human keratinocytes.
(§2) The HaCaT cell line used therefor was incubated at 37° C. in a […] incubator. When the extent of incubation arrived at 85 to 90% of the area of a culture vessel, the cells were detached with trypsin, counted, and subjected to subculture at 5×10^3 cells/cm^2.
(§3) For cell culture, a Dulbecco's Modified Eagle Medium (DMEM, GIBCO, Cat. No. 11995-065, USA), containing 10% fetal bovine serum (FBS, GIBCO, Cat. No., 26140-079, USA), 100 U/ml penicillin, and 100 μg/ml streptomycin, was used. For subculture, a 75 T-flask (NUNC, Cat. No. 156499, Denmark) was used, and the cytotoxicity test was carried out using a 24-well plate (NUNC, Cat. No. 142475, Denmark).
(§4) The human keratinocytes were counted at 5×10^3 cells/well each and then aliquoted into the 24-well plate using a hemocytometer. These cells were incubated in DMEM containing 10% FBS for 48 hr. When the extent of incubation arrived at 40 to 50% of the surface area of the culture vessel, the medium was replaced with FBS-free DMEM containing each of 50 ppm oligopeptide and 100 ppm oligopeptide, and culture was further conducted for 24 hr. Thereafter, 50 μl of a 3-(4,5-dimethylthiazol-2-yl)-2,5-diphenyl tetrazolium bromide (MTT, Sigma M5655, USA) solution (2.5 mg/ml) was added and culture was further performed for 3 hr. Then, the cell culture broth was discarded, 200 μl of dimethyl sulfoxide (DMSO, Sigma D2650, USA) was added to each well and shaken, 100 μl thereof was transferred into a 96-well plate, and the absorbance thereof was measured at 570 nm using an Enzyme-Linked Immunosorbent Assay (ELISA).
(§5) The cytotoxicity was represented as a percentage based on the absorbance intensity of a control using pure water.

Another data set has as its system HaCaT cell line. The data set is described as above. In kind it is cell-based. The following applies: 50 ppm and 100 ppm oligopeptide. As for the experimental part:
as §1, §2, §3, §4, §5

For orientation: viability means a read-out of living cells in per cent, often relative to untreated cells. Read a high viability as better survival.

Ends that are not written are not given here.

For “GQQKRSDRLNLSR-OH [Oligopeptide, Gly-Gln-Gln-Lys-Arg-Ser-Asp-Arg-Leu-Asn-Leu-Ser-Arg]”, the viability is 93% in data set [1] (50 ppm oligopeptide) and 81% in data set [1] (100 ppm oligopeptide). Moreover, the “cytotoxicity compared to the control” value in the data set with HaCaT cell line is given as “no cytotoxicity”.

(Values after patent US20170340544A1, “COSMETIC COMPOSITION FOR IMPROVING HEALTH OF SCALP AND METHOD OF PREPARING THE SAME” (OLIPASS Cosmeceuticals Company, priority 2016, published 2017).)
